Experimental data reported in patent publication US20240238294A1, “ANTICANCER THERAPY” (Boehringer Ingelheim International GmbH, priority 2021, published 2024).
Where two headings read alike, the source gives them in different places.

Key:
[1] = system: H358 cells harboring G12C plus Y96D; details: 72 hours, FIG. 4
Source text: (§1) Briefly, each KRAS mutation was introduced using a Prime STAR Mutagenesis Basal Kit (Takara) with designed primers into the pBABE-puro-KRas construct (Addgene, Cambridge, MA, USA). Retroviral particles were generated by co-transfection of each pBABE-puro-KRAS construct and pVSV-G vector (Clontech, Fremont, CA, USA) into gp-IRES 293 cells with FuGENE6 transfection reagent (Roche Diagnostics, Basel, Switzerland). Viral particles were concentrated using a retrovirus concentration kit (Clontech). Ba/F3 cells (3×103) or H358 cells (1×104) were transfected with each retrovirus and cultured at 37° C. for a few days. The transfected Ba/F3 cells or H358 cells were selected with 0.8-1.0 μg/mL or 2.0 μg/mL of puromycin, respectively. […]
(§2) In the two-dimensional (2D) growth inhibition assay, 5x10^3 cells were cultured in 96-well plates for 24 hours and treated with reagents at ten different concentrations for 72 hr. […] The amount of formazan dye, which reflects cell viability, was measured by reading the absorbance at 450 nm using a multiplate reader (Tecan, Mannedorf, Switzerland). […] IC50 values were determined by a nonlinear regression curve fit utilizing a variable slope model with normalized the response in GraphPad prism version 8 (GraphPad Software, San Diego, CA). […]

[2] = system: H358 cells harboring G12C plus Y96S; details: 72 hours, FIG. 4
Source text: as §1, §2

[3] = system: H358 cells with KRAS G12C + Y96S; details: 3D, monotherapy
Source text: as §1, §2

[4] = system: H358 cells with KRAS G12C + Y96D; details: 3D, monotherapy
Source text: as §1, §2

[5] = system: H358 cells with KRAS G12C + Y96S; details: 2D, monotherapy
Source text: as §1, with “Ba/F3 cells (3×103) or H358 cells (1×104) were transfected with each retrovirus and cultured at 37° C. for a few days.” left out
as §2

[6] = system: H358 cells with KRAS G12C + Y96D; details: 2D, monotherapy
Source text: as §1, with “Ba/F3 cells (3×103) or H358 cells (1×104) were transfected with each retrovirus and cultured at 37° C. for a few days.” left out
as §2

[7] = system: Ba/F3 cells harboring KRAS G12C; assay: growth inhibition assay, Ba/F3 cells with KRAS G12C; assay type: cell-based, murine; details: Mus musculus, BaF3; Table 3, Ba/F3 G12C, 72 hours
Source text: as §1, §2

[8] = system: Ba/F3 cells harboring KRAS G12C + Y96D (introduced); assay: growth inhibition assay, Ba/F3 cells with introduced KRAS G12C plus secondary mutation; assay type: cell-based, murine; details: Table 3, Ba/F3 G12C + Y96D
Source text: (§3) Briefly, each KRAS mutation was introduced using a Prime STAR Mutagenesis Basal Kit (Takara) with designed primers into the pBABE-puro-KRas construct (Addgene, Cambridge, MA, USA). Retroviral particles were generated by co-transfection of each pBABE-puro-KRAS construct and pVSV-G vector (Clontech, Fremont, CA, USA) into gp-IRES 293 cells with FuGENE6 transfection reagent (Roche Diagnostics, Basel, Switzerland). Viral particles were concentrated using a retrovirus concentration kit (Clontech). Ba/F3 cells (3×103) or H358 cells (1×104) were transfected with each retrovirus and cultured at 37° C. for a few days. The transfected Ba/F3 cells or H358 cells were selected with 0.8-1.0 μg/mL or 2.0 μg/mL of puromycin, respectively. After puromycin selection, presence of each KRAS mutation was confirmed as follows; total RNA was extracted from cells using a mirVana miRNA Isolation Kit (Qiagen, Hilden, Germany), and cDNA was generated by reverse transcription using ReverTra Ace (TOYOBO, Osaka, Japan). The KRAS coding sequence was amplified by PCR. The KRAS nucleotide sequence was checked by Sanger sequencing using the 3130 or 3500XL Genetic Analyzer (Applied Biosystems, Waltham, MA).
(§4) In the two-dimensional (2D) growth inhibition assay, 5x10^3 cells were cultured in 96-well plates for 24 hours and treated with reagents at ten different concentrations for 72 hr. Cell viability assays were performed using Cell Counting Kit-8 (Dojindo Laboratories, Kumamoto, Japan). The amount of formazan dye, which reflects cell viability, was measured by reading the absorbance at 450 nm using a multiplate reader (Tecan, Mannedorf, Switzerland). In the 3D growth inhibition assay, 5×10^3 cells were embedded in growth factor-reduced Matrigel (Corning, New York, USA) and cultured in RPMI 1640 medium (Wako) with 10% FBS (Sigma-Aldrich) and P/S (Wako) in 96-well plates. After 72 hours of incubation, cells were treated with the indicated concentrations for 72 hours, and a cell viability assay was performed as described above. IC50 values were determined by a nonlinear regression curve fit utilizing a variable slope model with normalized the response in GraphPad prism version 8 (GraphPad Software, San Diego, CA).
(§5) The RI value was calculated with the following formula: IC50 of each reconstructed Ba/F3 cell/IC50 of parental Ba/F3 cells with KRAS G12C.
(§6) The results are shown as the mean values of three individual experiments. Error bars indicate the standard deviation (SD).

[9] = system: Ba/F3 cells harboring KRAS G12C + A59S (introduced); assay: as above; assay type: cell-based, murine; details: Mus musculus, BaF3; Table 3, Ba/F3 G12C + A59S, 72 hours
Source text: as §3, §4, §5, §6

[10] = system: Ba/F3 cells harboring KRAS G12C + Y96S (introduced); assay: as above; assay type: cell-based, murine; details: Table 3, Ba/F3 G12C + Y96S
Source text: as §3, §4, §5, §6

## C=CC(=O)N1CCN(c2nc(=O)n(-c3c(C)ccnc3C(C)C)c3nc(-c4c(O)cccc4F)c(F)cc23)[C@@H](C)C1 [sotorasib]
[1]
  IC50 compared to parental H358 cells: approximately 30 times
[2]
  IC50 compared to parental H358 cells: approximately 30 times

## COc1cc2nc(C)nc(N[C@H](C)c3cc(N)cc(C(F)(F)F)c3)c2cc1O[C@H]1CCOC1 [BI-3406]
[3]
  growth inhibition: modestly inhibited growth
[4]
  growth inhibition: modestly inhibited growth
[5]
  growth inhibition: modestly inhibited growth
[6]
  growth inhibition: modestly inhibited growth

## C[C@@H]1OCC2(CCN(c3cnc(Sc4ccnc(N)c4Cl)c(N)n3)CC2)[C@@H]1N [TNO 155]
[7]
  IC50: 455 nM
[8]; Mus musculus, BaF3, 72 h
  IC50: > 1000 nM
[8]; 72 hours
  IC50: 1090 nM
[9]
  IC50: 3050 nM
[10]; Mus musculus, BaF3, 72 h
  IC50: > 1000 nM
[10]; 72 hours
  IC50: 1150 nM
